US8436000B2, “Substituted carbamate derivatives as modulators of corticotropin-releasing factor receptor activity” (Bristol-Myers Squibb Company, priority 2008, dated 2013)

Legend:
CRF1 = molecular target: T1, CRF1 (Rattus norvegicus, UniProt P35353); assay: CRF1 Binding Assay (125I-ovine-CRF displacement, rat frontal cortex homogenate); conditions: 125I-o-CRF
T1 construct: Frozen rat frontal cortex was thawed rapidly in assay buffer; tissue Analytical Biological Services, Inc. (Wilmington, Del.); host or cells: rat frontal cortex
T1 sequence (P35353 24-415): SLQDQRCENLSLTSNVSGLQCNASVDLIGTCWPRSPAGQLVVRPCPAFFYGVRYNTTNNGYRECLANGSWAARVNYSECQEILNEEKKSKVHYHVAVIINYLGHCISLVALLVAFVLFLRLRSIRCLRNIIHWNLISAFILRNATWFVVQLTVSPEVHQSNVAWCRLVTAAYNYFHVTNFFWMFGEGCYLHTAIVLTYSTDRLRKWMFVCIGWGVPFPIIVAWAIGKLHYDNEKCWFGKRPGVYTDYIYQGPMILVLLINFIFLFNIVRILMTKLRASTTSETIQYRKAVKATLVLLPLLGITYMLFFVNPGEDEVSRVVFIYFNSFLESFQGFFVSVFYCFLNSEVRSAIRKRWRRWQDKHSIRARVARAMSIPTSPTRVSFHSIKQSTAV
Procedure: Frozen rat frontal cortex was thawed rapidly in assay buffer containing 50 mM Hepes (pH 7.0 at 23° C.), 10 mM MgCl2, 2 mM EGTA, 1 μg/ml aprotinin, 1 μg/ml leupeptin, 1 Mg/ml pepstatin A, 0.005% Triton X-100, 10 U/ml bacitracin and 0.1% ovalbumin and homogenized. The suspension was centrifuged at 32000×g for 30 minutes. The resulting supernatant was discarded and the pellet resuspended by homogenization in assay buffer and centrifuged again. The supernatant was discarded and the pellet resuspended by homogenization in assay buffer and frozen at −70° C. On the day of the experiment aliquots of the homogenate were thawed quickly and 25 μg/well added to […] ^125I-ovine-CRF (^125I-o-CRF) and drugs in a total volume of 100 μl assay buffer. The assay mixture was incubated for 2 hr at 21° C. Bound and free radioligand were then separated by rapid filtration using glass fiber filters (Whatman GF/B, pretreated with 0.3% PEI (polyethylenimine)) on a Brandel Cell Harvester. Filters were then washed multiple times with ice cold wash buffer (PBS w/o Ca^2+ and Mg^2+, 0.01% Triton X-100; pH 7.0 at 23° C.). Non-specific binding was defined using 1 μM DMP696, a CRF1 selective antagonist [Li, Y-W. et al., CNS Drug Reviews 11: 21-52, (2005)]. Filters were then counted in a Wallac Wizard gamma counter. IC50 values were determined in a five point (five drug concentrations) or ten point (ten drug concentrations) competition assay using non-linear regression by Microsoft Excel-fit. Rat frontal cortex was obtained from Analytical Biological Services, Inc. (Wilmington, Del.). ^125I-ovine-CRF (2200 Ci/mmol) was obtained from PerkinElmer Life Sciences, Inc. (Boston, Mass.).

[1] = system: Human Y-79 retinoblastoma cells; assay: Functional Assay (Y-79 cells), CRF-stimulated cAMP production (HTRF); type: cell-based; conditions: stimulation of cAMP production in Y-79 cells, n=6
Procedure: Functional Assay (Y-79 cells).
Human Y-79 retinoblastoma cells were suspended in assay buffer (Hank's Balanced Salt Solution containing 2 mM CaCl2, 5 mM MgCl2, 20 mM HEPES, 1 mM IBMX) and plated at 20,000 cells/well in a 96-well black plate. CRF antagonists (typically 0.01 to 10,000 nM) were then added to wells as needed and allowed to equilibrate with the cells for 30 minutes at 37° C. […] The reaction was terminated by the addition of a lysis solution containing homogeneous time resolved florescence (HTRF) cAMP XL665 conjugate followed by HTRF anti-cAMP cryptate conjugate (CIS bio International). Plates were subsequently incubated at room temperature for 1 hour prior to reading the time-resolved fluorescence signal. The amount of cAMP produced was estimated from a standard curve prepared using known concentrations of cAMP. The percentage inhibition of CRF-induced cAMP production was determined for each compound (triplicate determinations). The effect of CRF antagonists on basal cAMP production (i.e. in the absence of CRF) was also determined.

Row | Molecule | IC50 (CRF1; class symbols) [nM] | other results
1 | COc1nc(C)c(Nc2nc(Cl)cn([C@H](COC(=O)Nc3ccccc3)C3CC3)c2=O)cc1C [Example 1, (S)-2-(5-Chloro-3-(6-methoxy-2,5-dimethylpyridin-3-ylamino)-2-oxopyrazin-1(2H)-yl)-2-cyclopropylethyl phenylcarbamate] | 0.1 to 100 | –
2 | COc1nc(C)c(Nc2nc(Cl)cn([C@H](COC(=O)Nc3cccc(C#N)c3)C3CC3)c2=O)cc1C [Example 2, (S)-2-(5-Chloro-3-(6-methoxy-2,5-dimethylpyridin-3-ylamino)-2-oxopyrazin-1(2H)-yl)-2-cyclopropylethyl 3-cyanophenylcarbamate] | 0.1 to 100 | melting point: 206.5 to 207.2 °C
3 | COc1nc(C)c(Nc2nc(Cl)cn([C@H](COC(=O)Nc3cccnc3)C3CC3)c2=O)cc1C [Example 3, (S)-2-(5-Chloro-3-(6-methoxy-2,5-dimethylpyridin-3-ylamino)-2-oxopyrazin-1(2H)-yl)-2-cyclopropylethyl pyridin-3-ylcarbamate] | 0.1 to 100 | –
4 | COc1nc(C)c(Nc2nc(Cl)cn([C@H](COC(=O)Nc3ccccc3Cl)C3CC3)c2=O)cc1C [Example 4, (S)-2-(5-Chloro-3-(6-methoxy-2,5-dimethylpyridin-3-ylamino)-2-oxopyrazin-1(2H)-yl)-2-cyclopropylethyl 2-chlorophenylcarbamate] | 0.1 to 100 | –
5 | COc1nc(C)c(Nc2nc(Cl)cn([C@H](COC(=O)Nc3ccc(Cl)cc3)C3CC3)c2=O)cc1C [Example 5, (S)-2-(5-Chloro-3-(6-methoxy-2,5-dimethylpyridin-3-ylamino)-2-oxopyrazin-1(2H)-yl)-2-cyclopropylethyl 4-chlorophenylcarbamate] | 0.1 to 100 | –
6 | COc1nc(C)c(Nc2nc(Cl)cn([C@H](COC(=O)Nc3cc(Cl)cc(Cl)c3)C3CC3)c2=O)cc1C [Example 6, (S)-2-(5-Chloro-3-(6-methoxy-2,5-dimethylpyridin-3-ylamino)-2-oxopyrazin-1(2H)-yl)-2-cyclopropylethyl 3,5-dichlorophenylcarbamate] | 0.1 to 100 | –
7 | COc1nc(C)c(Nc2nc(Cl)cn([C@H](COC(=O)Nc3ccc(Cl)cc3Cl)C3CC3)c2=O)cc1C [Example 7, (S)-2-(5-Chloro-3-(6-methoxy-2,5-dimethylpyridin-3-ylamino)-2-oxopyrazin-1(2H)-yl)-2-cyclopropylethyl 2,4-dichlorophenylcarbamate] | 0.1 to 100 | –
8 | CCCCNC(=O)OC[C@H](C1CC1)n1cc(Cl)nc(Nc2cc(C)c(OC)nc2C)c1=O [Example 8, (S)-2-(5-Chloro-3-(6-methoxy-2,5-dimethylpyridin-3-ylamino)-2-oxopyrazin-1(2H)-yl)-2-cyclopropylethyl butylcarbamate] | – | IC50 (CRF1; numeric values): 4.74 nM
9 | CCCNC(=O)OC[C@H](C1CC1)n1cc(Cl)nc(Nc2cc(C)c(OC)nc2C)c1=O [Example 9, (S)-2-(5-Chloro-3-(6-methoxy-2,5-dimethylpyridin-3-ylamino)-2-oxopyrazin-1(2H)-yl)-2-cyclopropylethyl propylcarbamate] | 0.1 to 100 | –
10 | CCOc1nc(C)c(NC(=O)OC[C@H](C2CC2)n2cc(Cl)nc(Nc3cc(C)c(OC)nc3C)c2=O)cc1C [Example 11, (S)-2-(5-Chloro-3-(6-methoxy-2,5-dimethylpyridin-3-ylamino)-2-oxopyrazin-1(2H)-yl)-2-cyclopropylethyl 6-ethoxy-2,5-dimethylpyridin-3-ylcarbamate] | – | IC50 (CRF1; numeric values): 15.9 nM
11 | COc1ccc(NC(=O)OC[C@H](C2CC2)n2cc(Cl)nc(Nc3cc(C)c(OC)nc3C)c2=O)c(C)n1 [Example 13, (S)-2-(5-Chloro-3-(6-methoxy-2,5-dimethylpyridin-3-ylamino)-2-oxopyrazin-1(2H)-yl)-2-cyclopropylethyl 6-methoxy-2-dimethylpyridin-3-ylcarbamate] | 0.1 to 100 | –
12 | Cc1cc(Nc2nc(Cl)cn([C@H](COC(=O)Nc3ccccc3)C3CC3)c2=O)c(C)nc1OC(F)F [Example 14, (S)-2-(5-Chloro-3-(6-(difluoromethoxy)-2,5-dimethylpyridin-3-ylamino)-2-oxopyrazin-1(2H)-yl)-2-cyclopropylethyl phenylcarbamate] | – | IC50 (CRF1; numeric values): 0.74 nM
13 | Cc1cc(Nc2nc(Cl)cn([C@H](COC(=O)Nc3cccnc3)C3CC3)c2=O)c(C)nc1OC(F)F [Example 15, (S)-2-(5-Chloro-3-(6-(difluoromethoxy)-2,5-dimethylpyridin-3-ylamino)-2-oxopyrazin-1(2H)-yl)-2-cyclopropylethyl pyridin-3-ylcarbamate] | 0.1 to 100 | –
14 | Corticotropin releasing factor [CRF] | – | EC50 [1]: 1.11 ± 0.14 nM

The next lines start with results.

Row | IC50 (CRF1; class symbols) [nM] | Molecule | other results
15 | 0.1 to 100 | CCNC(=O)OC[C@H](C1CC1)n1cc(Cl)nc(Nc2cc(C)c(OC)nc2C)c1=O [Example 10, (S)-2-(5-Chloro-3-(6-methoxy-2,5-dimethylpyridin-3-ylamino)-2-oxopyrazin-1(2H)-yl)-2-cyclopropylethyl ethylcarbamate] | –
16 | 0.1 to 100 | COc1nc(C)c(NC(=O)OC[C@H](C2CC2)n2cc(Cl)nc(Nc3cc(C)c(OC)nc3C)c2=O)cc1C [Example 12, (S)-2-(5-Chloro-3-(6-methoxy-2,5-dimethylpyridin-3-ylamino)-2-oxopyrazin-1(2H)-yl)-2-cyclopropyl ethyl 6-methoxy-2,5-dimethylpyridin-3-ylcarbamate] | –
